Measurements reported in PMC7284870, “Antimicrobial Peptides from Rat-Tailed Maggots of the Drone Fly Eristalis tenax Show Potent Activity against Multidrug-Resistant Gram-Negative Bacteria” (Microorganisms, 2020).
Converted amounts (≈) assume the structure as drawn. “And” between values parts separate entries of the source, which are not always exact repeats. Identical values can stand only once. Like-named read-outs stand apart in the source and are kept apart here. No end group written: not given here.

Tests used:
E. coli RKI 131/08 = test: microbe, parasite or virus in culture; assay type: cell-based, Escherichia coli
Method: The strains that were used in this study (Table 2 and Table S1) were cultivated at 37 °C in cation-adjusted Mueller–Hinton broth (CAMB) in Erlenmeyer flasks, or on the same medium with agar in Petri dishes. Exceptionally, Mycobacterium smegmatis was cultivated at 37 °C in brain heart infusion (BHI) medium that was supplemented with 1% Tween-80 in Erlenmeyer flasks, or on the same medium lacking detergent but with agar in Petri dishes. Strains listed with Robert Koch Institute (RKI) strain numbers are clinical isolates from the RKI strain collection originating from hospitalized patients in Germany. The remaining strains originated from the Sanofi strain collection and they were originally purchased from the American Type Culture Collection or the German Collection of Microorganisms and Cell Cultures. Meropenem/colistin-resistant strains were maintained, as described above, with the appropriate antibiotic added at levels below the minimal inhibitory concentration (MIC).
The MIC values were determined in 384-well microtiter plates with an assay volume of 20 µL. Immediately before each assay, the cultures of test organisms (bacteria grown for 18 h, Candida albicans and M. smegmatis grown for 48 h) were diluted with the appropriate medium to a density of 1 × 10^6 cells/mL (C. albicans), 1 × 10^5 cells/mL (M. smegmatis) or 5 × 10^5 cells per mL (other species). […] We transferred 2-µL aliquots from this dilution series to new 384-well microtiter plates while using a CyBio-Well 384-channel automated pipettor (Analytic Jena, Jena, Germany) and added 18 µL of the diluted suspension of each test species using a Viafill reagent dispenser (Integra), thus reducing the final peptide concentration 10-fold to the range 1024–0.03125 µg/mL. […] The growth of M. smegmatis was measured using the BacTiter-Glo luminescence test system (Promega, Madison, WI, USA). The growth of the other species was determined by visual inspection of the microtiter plate and turbidimetry based on the optical density at 600 nm (OD600). The MIC was defined as the peptide concentration at which no bacterial growth was observed. We supplemented the test medium with either 150 mM NaCl or 1.25 mM CaCl2 to represent monovalent and divalent cations to simulate physiological conditions.

[1] = Metabolic stability in human hepatocytes; assay type: in vitro ADME; settings: cryopreserved human hepatocytes in suspension, 0.5 × 10^6 cells/mL, 1 µM peptide
Method: The metabolic stability of the E. tenax peptides was assessed by determining the intrinsic clearance while using cryopreserved human hepatocytes in suspension culture in a volume of 60 µL with a seeding densitiy of 0.5 × 10^6 hepatocytes/mL. The peptides were added at a concentration of 1 µM (4.14, 4.28, and 6.65 µg/mL for EtCec1-a, EtCec2-a, and EtDip, respectively). Scaled hepatic clearance for human was calculated based on a weight of 25.71 g liver/kg and a hepatocellularity of 99 × 10^6 cells/g liver.

Plasma stability = assay type: in vitro ADME; settings: 37 °C, LC-MS, triplicate; for remaining at 24 h, 5 µM: after 24 h, read-out: peptide remaining in plasma; for hydrolysis in plasma: 5 µM
Method: EtCec1-a, EtCec2-a, and EtDip were dissolved as 1 mM stock solutions in sterile deionized water and then incubated in 500 µL plasma from different species (human, mouse and rat) to a final concentration of 5 µM (20.7, 21.4, and 33.3 µg/mL for EtCec1-a, EtCec2-a, and EtDip, respectively) at 37 °C. At different time points (0, 1, 4, and 24 h), 100-µL samples were transferred to 500 µL ethanol containing 0.5% (v/v) NH3, and the plasma proteins were precipitated by centrifugation for 20 min. at 1735× g. EtCec1-a, EtCec2-a, and EtDip (10 µL injection volume) were analyzed in triplicate by LC-MS, and their stability was evaluated by comparing samples of with plasma incubated timepoints (t1, t4, t24) to untreated samples (t0). The peptides were separated on an AERIS Peptide 3.6-µm XB-C18 50 × 2.1 mm column (Phenomenex, Torrance, CA, USA) with an ascending acetonitrile gradient in water (that was supplemented with 0.1% formic acid) at a flow rate of 500 µL/min.

S. aureus ATCC 33592 = assay type: cell-based, Staphylococcus aureus
Outline: (§1)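 Broth microdilution in cation-adjusted Mueller–Hinton broth at 37 °C, with 18 h cultures diluted to 5 × 10^5 cells/mL and final peptide concentrations of 1024–0.03125 µg/mL. Growth was scored visually and by OD600. MIC is the lowest concentration with no growth; medium was optionally supplemented with 150 mM NaCl or 1.25 mM CaCl2.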

[2] = biological target: human ERG (hERG) potassium channel (Homo sapiens, UniProt Q12809); test: cell-based
Method: The interaction of the peptides with the human ERG (hERG) potassium channel was analyzed using the automated patch-clamp method. Chinese hamster ovary (CHO) hERG Duo cells constitutively expressing hERG (B’SYS) were diluted to 8 × 10^6 cells/mL in Ex-Cell CHO medium (Sigma–Aldrich) containing 25 mM HEPES, 100 U/mL penicillin-streptomycin, and 0.004% soybean trypsin inhibitor. The peptides were diluted from a stock concentration of 10 mM in DMSO to final concentrations of 0.12, 0.37, 1.1, 3.3, 10, and 30 μM (0.5–124 µg/mL for […], 0.51–128 µg/mL for EtCec2-a, 0.49–122 µg/mL for EtCec3-a, 0.8–200 µg/mL for EtDip) in extracellular medium (150 mM NaCl, 4 mM KCl, 2 mM CaCl2, 1 mM MgCl2, 10 mM HEPES, 10 mM glucose) containing 0.06% Pluronic F-68 and 0.3% residual DMSO. The response of hERG to each peptide was assessed while using a QPatch HTX station and QPlates (Sophion/Biolin Scientific, Ballerup, Denmark) by recording the tail current following channel repolarization. Half-maximal inhibitory concentrations (IC50) were determined from a series of six concentrations applied to the cells in ascending order. Terfenadine citrate was used as a positive control and extracellular medium as a negative control.

[3] = tested on: Staphylococcus aureus ATCC 25923; assay type: cell-based
Outline: as §1

Escherichia coli D31 = assay type: cell-based
Outline: as §1

[4] = tested on: Klebsiella pneumoniae DSM 30104; assay type: cell-based
Outline: as §1

Canida albicans FH2173 = assay type: cell-based, Candida albicans; settings: CAMB, 24 h, 37 °C, n = 4
Outline: as §1

[5] = CAMB + 0.075 µg/mL colistin (Col), n=3
[6] = CAMB adjusted to 150 mM NaCl, n=3

Sequence of human ERG (hERG) potassium channel (Q12809 whole entry): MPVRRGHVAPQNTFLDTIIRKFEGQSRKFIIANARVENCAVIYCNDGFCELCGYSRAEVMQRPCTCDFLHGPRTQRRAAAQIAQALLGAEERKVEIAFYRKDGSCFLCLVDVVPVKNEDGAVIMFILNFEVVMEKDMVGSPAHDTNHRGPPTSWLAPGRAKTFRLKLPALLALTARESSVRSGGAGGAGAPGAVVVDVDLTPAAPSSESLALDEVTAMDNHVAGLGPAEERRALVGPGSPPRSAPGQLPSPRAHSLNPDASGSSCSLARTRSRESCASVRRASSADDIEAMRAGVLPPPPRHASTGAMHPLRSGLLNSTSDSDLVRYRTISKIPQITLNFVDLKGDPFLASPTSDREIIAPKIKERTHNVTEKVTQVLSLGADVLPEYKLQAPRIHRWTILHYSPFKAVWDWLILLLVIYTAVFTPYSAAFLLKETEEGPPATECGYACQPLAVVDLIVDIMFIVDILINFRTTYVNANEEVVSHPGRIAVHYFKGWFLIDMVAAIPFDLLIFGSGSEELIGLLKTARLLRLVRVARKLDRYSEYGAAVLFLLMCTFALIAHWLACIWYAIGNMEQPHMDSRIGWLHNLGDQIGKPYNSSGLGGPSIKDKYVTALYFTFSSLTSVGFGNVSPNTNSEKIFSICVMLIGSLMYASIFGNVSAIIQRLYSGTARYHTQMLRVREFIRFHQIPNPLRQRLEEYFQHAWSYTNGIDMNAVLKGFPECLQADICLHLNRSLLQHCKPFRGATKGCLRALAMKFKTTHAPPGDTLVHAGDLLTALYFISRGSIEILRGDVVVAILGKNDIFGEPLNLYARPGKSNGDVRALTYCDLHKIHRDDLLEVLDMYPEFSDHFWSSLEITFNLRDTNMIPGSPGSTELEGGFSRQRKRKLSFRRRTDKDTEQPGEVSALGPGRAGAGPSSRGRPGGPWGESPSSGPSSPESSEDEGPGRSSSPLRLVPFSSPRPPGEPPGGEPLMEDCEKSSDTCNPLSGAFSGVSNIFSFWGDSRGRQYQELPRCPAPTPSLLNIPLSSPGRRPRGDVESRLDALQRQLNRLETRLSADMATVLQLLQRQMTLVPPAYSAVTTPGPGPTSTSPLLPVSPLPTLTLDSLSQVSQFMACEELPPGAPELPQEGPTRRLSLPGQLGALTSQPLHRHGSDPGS

Compound | half-life [1] | half-life at 1 µM [1] [min] | remaining at 24 h, 5 µM (Plasma stability; human plasma) [%] | hydrolysis in plasma (Plasma stability; mouse plasma, within 24 h) | hydrolysis in plasma (Plasma stability; rat plasma, within 24 h) | IC50 [2] [µM] | MIC (E. coli RKI 131/08; [5]) [µg/mL] | MIC (S. aureus ATCC 33592; CAMB, 18 h, 37 °C, n = 4) [µg/mL] | MIC ([3]; CAMB, 18 h, 37 °C, n = 4) [µg/mL] | MIC (Escherichia coli D31; CAMB, 18 h, 37 °C, n = 4) [µg/mL] | MIC [4, 5] [µg/mL] | MIC ([4]; CAMB, 18 h, 37 °C, n = 4) [µg/mL] | MIC (Canida albicans FH2173) [µg/mL] | other results
GFLKKIGKKLEGAVQRTRDATIQTIAVAQAAANVAATAKQ-NH2 [EtCec1-NH2] | > 200 min | 428 | 48 | completely hydrolyzed | completely hydrolyzed | > 30 |  |  |  |  |  |  |  | MIC (E. coli RKI 131/08; RKI 131/08, 18 h): 4 µg/mL; MIC (S. aureus ATCC 33592; ATCC 33592, 18 h): >1024 µg/mL; MIC ([3]; ATCC 25923, 18 h): >1024 µg/mL; MIC (Escherichia coli D31; D31, 18 h): 4 µg/mL; MIC ([4]; DSM 30104, 18 h): 4 µg/mL
GWLRDFGKRIERTGQNIRDATIQTIGIAQEAANVAATLK-NH2 [EtCec2-NH2] | > 200 min | 206 | 22 | completely hydrolyzed | completely hydrolyzed | > 29.9 | 2 | >1024 | >1024 | 4 | 2 | 16 | >1024 | MIC (E. coli RKI 131/08; [6]): 16 µg/mL; MIC (E. coli RKI 131/08; Table 4, CAMB, n=3): 16 µg/mL; MIC [4, 6]: 32 µg/mL; MIC ([4]; Table 4, CAMB, n=3): 16 µg/mL
QFNMQGGGSPRQGFDVNANARFPIWQSQNARNSVHGTASYAQHLGGPYGNSRPNFGGGLQFT [EtDip, diptericin-like peptide of Eristalis tenax] | 345 min and > 200 min |  |  |  |  |  | 4 | >1024 | >1024 | >1024 | 4 | >1024 | >1024 | MIC (E. coli RKI 131/08; Table 5, CAMB, n=3): >1024 µg/mL; hydrolysis in plasma (Plasma stability; human plasma, after 1 h): ≥ 83%; hydrolysis in plasma (Plasma stability; mouse plasma, after 1 h): ≥ 83%; hydrolysis in plasma (Plasma stability; rat plasma, after 1 h): ≥ 83%; IC50 hERG ([2]; CHO hERG Duo cells, QPatch, tail current, six concentrations): > 200 µg/mL; MIC ([4]; Table 5, CAMB, n=3): >1024 µg/mL
C[C@@H](O)[C@H]1C(=O)N2C(C(=O)O)=C(S[C@@H]3CN[C@H](C(=O)N(C)C)C3)[C@H](C)[C@H]12 [MEM, meropenem] |  |  |  |  |  |  |  |  |  |  |  |  |  | MIC (E. coli RKI 131/08; Escherichia coli, RKI131/08): 32 µg/mL (≈ 83.4 µM)
